The supplement of paper PMC10307832

Experiments:
Experiment in all cases: relative viability (nuclei count vs DMSO), 5 days (fraction); higher = more cells survive
Ruxolitinib + Navitoclax = compound: N#CC[C@H](C1CCCC1)n1cc(-c2ncnc3[nH]ccc23)cn1 [Ruxolitinib] + CC1(C)CCC(c2ccc(Cl)cc2)=C(CN2CCN(c3ccc(C(=O)NS(=O)(=O)c4ccc(N[C@H](CCN5CCOCC5)CSc5ccccc5)c(S(=O)(=O)C(F)(F)F)c4)cc3)CC2)C1 [Navitoclax] (partner 0.5 µM)
In short: (§1)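 A single step with final 0.05% Triton X-100, 1% formaldehyde and 1 ug/ml Hoechst fixed the cells and stained nuclei 5 days after treatment. Lung cancer cell lines in 1536-well plates had been treated by pin tool the day after seeding with one drug alone or a fixed anchor-drug dose plus five library-drug doses (not always all listed) in √10 steps, and nuclei were counted on 4× images. Relative viability is the ratio of nuclei in treated wells to nuclei in vehicle wells, taken as the median of duplicate plates.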

Vismodegib + Bortezomib = compound: CS(=O)(=O)c1ccc(C(=O)Nc2ccc(Cl)c(-c3ccccn3)c2)c(Cl)c1 [Vismodegib] + CC(C)C[C@H](NC(=O)[C@H](Cc1ccccc1)NC(=O)c1cnccn1)B(O)O [Bortezomib] (partner 0.002 µM)
In short: as §1

Ruxolitinib + Pemetrexed = compound: N#CC[C@H](C1CCCC1)n1cc(-c2ncnc3[nH]ccc23)cn1 [Ruxolitinib] + Nc1nc2[nH]cc(CCc3ccc(C(=O)N[C@@H](CCC(=O)O)C(=O)O)cc3)c2c(=O)[nH]1 [Pemetrexed] (partner 0.2 µM)
In short: as §1

Vismodegib + Tozasertib = compound: CS(=O)(=O)c1ccc(C(=O)Nc2ccc(Cl)c(-c3ccccn3)c2)c(Cl)c1 [Vismodegib] + Cc1cc(Nc2cc(N3CCN(C)CC3)nc(Sc3ccc(NC(=O)C4CC4)cc3)n2)n[nH]1 [Tozasertib] (partner 0.1 µM)
In short: as §1

## NCI-H2405
Ruxolitinib + Navitoclax; first compound 0.253 µM
  relative viability: 0.771
Ruxolitinib + Navitoclax; first compound 0.8 µM
  relative viability: 1.28
Ruxolitinib + Navitoclax; first compound 2.53 µM
  relative viability: 0.456
Ruxolitinib + Navitoclax; first compound 8 µM
  relative viability: 0.471
Vismodegib + Bortezomib; first compound 0.08 µM
  relative viability: 0.833
Vismodegib + Bortezomib; first compound 0.253 µM
  relative viability: 0.977
Vismodegib + Bortezomib; first compound 0.8 µM
  relative viability: 0.978
Vismodegib + Bortezomib; first compound 2.53 µM
  relative viability: 0.92
Vismodegib + Bortezomib; first compound 8 µM
  relative viability: 0.995
Ruxolitinib + Pemetrexed; first compound 0.08 µM
  relative viability: 1.07
Ruxolitinib + Pemetrexed; first compound 0.253 µM
  relative viability: 1.11
Ruxolitinib + Pemetrexed; first compound 0.8 µM
  relative viability: 1.13
Ruxolitinib + Pemetrexed; first compound 2.53 µM
  relative viability: 0.895
Ruxolitinib + Pemetrexed; first compound 8 µM
  relative viability: 0.592
Vismodegib + Tozasertib; first compound 0.08 µM
  relative viability: 0.705
Vismodegib + Tozasertib; first compound 0.253 µM
  relative viability: 0.733
Vismodegib + Tozasertib; first compound 0.8 µM
  relative viability: 0.7
Vismodegib + Tozasertib; first compound 2.53 µM
  relative viability: 0.709
Vismodegib + Tozasertib; first compound 8 µM
  relative viability: 0.765

## LK-2
Ruxolitinib + Navitoclax; first compound 0.253 µM
  relative viability: 0.719
Ruxolitinib + Navitoclax; first compound 0.8 µM
  relative viability: 1.11
Ruxolitinib + Navitoclax; first compound 2.53 µM
  relative viability: 0.9
Ruxolitinib + Navitoclax; first compound 8 µM
  relative viability: 0.708
Ruxolitinib + Pemetrexed; first compound 0.08 µM
  relative viability: 0.291
Ruxolitinib + Pemetrexed; first compound 0.253 µM
  relative viability: 0.276
Ruxolitinib + Pemetrexed; first compound 0.8 µM
  relative viability: 0.308
Ruxolitinib + Pemetrexed; first compound 2.53 µM
  relative viability: 0.234
Ruxolitinib + Pemetrexed; first compound 8 µM
  relative viability: 0.29
Vismodegib + Tozasertib; first compound 0.08 µM
  relative viability: 0.194
Vismodegib + Tozasertib; first compound 0.253 µM
  relative viability: 0.167
Vismodegib + Tozasertib; first compound 0.8 µM
  relative viability: 0.167
Vismodegib + Tozasertib; first compound 2.53 µM
  relative viability: 0.17
Vismodegib + Tozasertib; first compound 8 µM
  relative viability: 0.165

## HCC-366
Ruxolitinib + Navitoclax; first compound 0.08 µM
  relative viability: 1.14
Ruxolitinib + Navitoclax; first compound 0.253 µM
  relative viability: 1.05
Ruxolitinib + Navitoclax; first compound 0.8 µM
  relative viability: 1.05
Ruxolitinib + Navitoclax; first compound 2.53 µM
  relative viability: 0.965
Ruxolitinib + Navitoclax; first compound 8 µM
  relative viability: 0.993
Vismodegib + Bortezomib; first compound 0.08 µM
  relative viability: 1.06
Vismodegib + Bortezomib; first compound 0.253 µM
  relative viability: 1.03
Vismodegib + Bortezomib; first compound 0.8 µM
  relative viability: 1.06
Vismodegib + Bortezomib; first compound 2.53 µM
  relative viability: 0.934
Vismodegib + Bortezomib; first compound 8 µM
  relative viability: 1.06
Ruxolitinib + Pemetrexed; first compound 0.08 µM
  relative viability: 0.162
Ruxolitinib + Pemetrexed; first compound 0.253 µM
  relative viability: 0.193
Ruxolitinib + Pemetrexed; first compound 0.8 µM
  relative viability: 0.155
Ruxolitinib + Pemetrexed; first compound 2.53 µM
  relative viability: 0.192
Ruxolitinib + Pemetrexed; first compound 8 µM
  relative viability: 0.147
Vismodegib + Tozasertib; first compound 0.08 µM
  relative viability: 0.11
Vismodegib + Tozasertib; first compound 0.253 µM
  relative viability: 0.106
Vismodegib + Tozasertib; first compound 0.8 µM
  relative viability: 0.0997
Vismodegib + Tozasertib; first compound 2.53 µM
  relative viability: 0.0832
Vismodegib + Tozasertib; first compound 8 µM
  relative viability: 0.0622

## NCI-H441
Ruxolitinib + Navitoclax; first compound 0.08 µM
  relative viability: 0.817
Ruxolitinib + Navitoclax; first compound 0.253 µM
  relative viability: 0.501
Ruxolitinib + Navitoclax; first compound 0.8 µM
  relative viability: 0.659
Ruxolitinib + Navitoclax; first compound 2.53 µM
  relative viability: 0.45
Ruxolitinib + Navitoclax; first compound 8 µM
  relative viability: 0.623
Vismodegib + Bortezomib; first compound 0.08 µM
  relative viability: 0.535
Vismodegib + Bortezomib; first compound 0.253 µM
  relative viability: 0.588
Vismodegib + Bortezomib; first compound 0.8 µM
  relative viability: 0.522
Vismodegib + Bortezomib; first compound 2.53 µM
  relative viability: 0.319
Vismodegib + Bortezomib; first compound 8 µM
  relative viability: 0.523
Ruxolitinib + Pemetrexed; first compound 0.08 µM
  relative viability: 0.259
Ruxolitinib + Pemetrexed; first compound 0.253 µM
  relative viability: 0.252
Ruxolitinib + Pemetrexed; first compound 0.8 µM
  relative viability: 0.273
Ruxolitinib + Pemetrexed; first compound 2.53 µM
  relative viability: 0.231
Ruxolitinib + Pemetrexed; first compound 8 µM
  relative viability: 0.261
Vismodegib + Tozasertib; first compound 0.08 µM
  relative viability: 0.576
Vismodegib + Tozasertib; first compound 0.253 µM
  relative viability: 0.63
Vismodegib + Tozasertib; first compound 0.8 µM
  relative viability: 0.567
Vismodegib + Tozasertib; first compound 2.53 µM
  relative viability: 0.524
Vismodegib + Tozasertib; first compound 8 µM
  relative viability: 0.584

## COR-L 105
Ruxolitinib + Navitoclax; first compound 0.08 µM
  relative viability: 0.707
Ruxolitinib + Navitoclax; first compound 0.253 µM
  relative viability: 0.701
Ruxolitinib + Navitoclax; first compound 0.8 µM
  relative viability: 0.89
Ruxolitinib + Navitoclax; first compound 2.53 µM
  relative viability: 0.694
Ruxolitinib + Navitoclax; first compound 8 µM
  relative viability: 0.515
Vismodegib + Bortezomib; first compound 0.08 µM
  relative viability: 0.765
Vismodegib + Bortezomib; first compound 0.253 µM
  relative viability: 0.907
Vismodegib + Bortezomib; first compound 0.8 µM
  relative viability: 0.778
Vismodegib + Bortezomib; first compound 2.53 µM
  relative viability: 0.753
Vismodegib + Bortezomib; first compound 8 µM
  relative viability: 0.665
Ruxolitinib + Pemetrexed; first compound 0.253 µM
  relative viability: 1
Ruxolitinib + Pemetrexed; first compound 0.8 µM
  relative viability: 0.926
Ruxolitinib + Pemetrexed; first compound 2.53 µM
  relative viability: 0.874
Ruxolitinib + Pemetrexed; first compound 8 µM
  relative viability: 0.919
Vismodegib + Tozasertib; first compound 0.08 µM
  relative viability: 0.357
Vismodegib + Tozasertib; first compound 0.253 µM
  relative viability: 0.335
Vismodegib + Tozasertib; first compound 0.8 µM
  relative viability: 0.25
Vismodegib + Tozasertib; first compound 2.53 µM
  relative viability: 0.374
Vismodegib + Tozasertib; first compound 8 µM
  relative viability: 0.391

## A-427
Ruxolitinib + Navitoclax; first compound 0.08 µM
  relative viability: 1
Ruxolitinib + Navitoclax; first compound 0.253 µM
  relative viability: 0.939
Ruxolitinib + Navitoclax; first compound 0.8 µM
  relative viability: 0.959
Ruxolitinib + Navitoclax; first compound 2.53 µM
  relative viability: 0.917
Ruxolitinib + Navitoclax; first compound 8 µM
  relative viability: 0.8
Vismodegib + Bortezomib; first compound 0.08 µM
  relative viability: 0.991
Vismodegib + Bortezomib; first compound 0.253 µM
  relative viability: 0.945
Vismodegib + Bortezomib; first compound 0.8 µM
  relative viability: 0.856
Vismodegib + Bortezomib; first compound 2.53 µM
  relative viability: 0.968
Vismodegib + Bortezomib; first compound 8 µM
  relative viability: 1.09
Ruxolitinib + Pemetrexed; first compound 0.08 µM
  relative viability: 1
Ruxolitinib + Pemetrexed; first compound 0.253 µM
  relative viability: 0.927
Ruxolitinib + Pemetrexed; first compound 0.8 µM
  relative viability: 0.967
Ruxolitinib + Pemetrexed; first compound 2.53 µM
  relative viability: 1.04
Ruxolitinib + Pemetrexed; first compound 8 µM
  relative viability: 0.893
Vismodegib + Tozasertib; first compound 0.08 µM
  relative viability: 0.233
Vismodegib + Tozasertib; first compound 0.253 µM
  relative viability: 0.193
Vismodegib + Tozasertib; first compound 0.8 µM
  relative viability: 0.22
Vismodegib + Tozasertib; first compound 2.53 µM
  relative viability: 0.196
Vismodegib + Tozasertib; first compound 8 µM
  relative viability: 0.21

## HCC-44
Ruxolitinib + Navitoclax; first compound 0.08 µM
  relative viability: 0.991
Ruxolitinib + Navitoclax; first compound 0.253 µM
  relative viability: 1.14
Ruxolitinib + Navitoclax; first compound 0.8 µM
  relative viability: 0.966
Ruxolitinib + Navitoclax; first compound 2.53 µM
  relative viability: 0.664
Ruxolitinib + Navitoclax; first compound 8 µM
  relative viability: 0.394
Vismodegib + Bortezomib; first compound 0.08 µM
  relative viability: 0.918
Vismodegib + Bortezomib; first compound 0.253 µM
  relative viability: 0.816
Vismodegib + Bortezomib; first compound 0.8 µM
  relative viability: 0.897
Vismodegib + Bortezomib; first compound 2.53 µM
  relative viability: 0.841
Vismodegib + Bortezomib; first compound 8 µM
  relative viability: 0.901
Ruxolitinib + Pemetrexed; first compound 0.08 µM
  relative viability: 0.632
Ruxolitinib + Pemetrexed; first compound 0.253 µM
  relative viability: 0.694
Ruxolitinib + Pemetrexed; first compound 0.8 µM
  relative viability: 0.646
Ruxolitinib + Pemetrexed; first compound 2.53 µM
  relative viability: 0.571
Ruxolitinib + Pemetrexed; first compound 8 µM
  relative viability: 0.641
Vismodegib + Tozasertib; first compound 0.08 µM
  relative viability: 0.951
Vismodegib + Tozasertib; first compound 0.253 µM
  relative viability: 0.836
Vismodegib + Tozasertib; first compound 0.8 µM
  relative viability: 0.877
Vismodegib + Tozasertib; first compound 2.53 µM
  relative viability: 0.832
Vismodegib + Tozasertib; first compound 8 µM
  relative viability: 0.993
